Measured values: patent publication US20140314819A1, “COMPOSITIONS AND METHODS FOR TREATING DENTAL CONDITIONS” (HILL'S PET NUTRITION, INC., priority 2011, published 2014)

Key:
[1] = test system: oral substrate accumulation (dental plaque, calculus, and tooth stain); test: Twelve month feeding study in cats: oral substrate accumulation by Logan-Boyce quantification; type: in vivo, domestic cats; settings: composition comprising 1.2% lactic acid fed to cats for six months
Excerpt: This study was designed to assess the effect of lactic acid on oral substrate accumulation (dental plaque, calculus, and tooth stain) in cats. Initially, all cats received a professional dental prophylaxis at this baseline using standard, well-established procedures. Six and twelve months later, dental substrate accumulation (dental plaque, calculus, and tooth stain) was quantified using the Logan-Boyce quantification method (See Logan E I, Boyce. Oral health assessment in dogs: parameters and methods. J. Vet Dent; 11(2):58-63.) Plaque is measured by applying a disclosing solution (2% aqueous eosin) to the animal's teeth. The teeth to be scored are divided into gingival and occlusal halves, and each half is assigned a separate numerical score for plaque coverage (percentage of the tooth area stained) and thickness (intensity of staining) The score for each tooth half is calculated by multiplying the coverage and thickness scores. The gingival and occlusal scores are then added together for a tooth score. The sum of the teeth scores is identified as the total tooth score, and the whole mouth mean score is calculated by averaging the total teeth scores for each animal. The plaque scoring method gives a number of 0-4 by the percentage of plaque coverage with 0=no plaque detected, 1=1-24% coverage, 2=25-49% coverage, 3=50-74% coverage and 4=75-100% coverage. […]

[2] = test system: oral substrate accumulation (dental plaque, calculus, and tooth stain); test: 28 day feeding study in dogs: oral substrate accumulation by Logan-Boyce quantification; type: in vivo, beagle dogs; settings: dog food comprising 1.5% lactic acid fed to dogs for one month
Procedure: Plaque is measured by applying a disclosing solution (2% aqueous eosin) to the animal's teeth. The teeth to be scored are divided into gingival and occlusal halves, and each half is assigned a separate numerical score for plaque coverage (percentage of the tooth area stained) and thickness (intensity of staining) The score for each tooth half is calculated by multiplying the coverage and thickness scores. The gingival and occlusal scores are then added together for a tooth score. The sum of the teeth scores is identified as the total tooth score, and the whole mouth mean score is calculated by averaging the total teeth scores for each animal. The plaque scoring method gives a number of 0-4 by the percentage of plaque coverage with 0=no plaque detected, 1=1-24% coverage, 2=25-49% coverage, 3=50-74% coverage and 4=75-100% coverage. […] The whole mouth score is calculated by adding the teeth scores and dividing by the number of teeth scored. Calculus is measured by air-drying the teeth to be scored, dividing those teeth vertically into mesial, buccal, and distal thirds, and assigning each third a numerical score based on the percentage of calculus coverage with 0=no calculus detected, 1=1-24% coverage, 2=25-49% coverage, 3=50-74% coverage, and 4=75-100% coverage. […] The whole mouth score is calculated by adding the teeth scores and dividing by the number of teeth scored. […]

CC(O)C(=O)O (centres unmarked) [lactic acid]
Effect on formation of dental plaque, calculus and stain (in words) [1]: inhibits formation of dental plaque, calculus and stain
Effect on tooth calculus and stain (in words) [2]: inhibits tooth calculus and stain
